{"source": "patent US20050215521A1", "about": "“Modafinil combination therapy for improving sleep quality” (priority 2003, published 2005)", "origin": "cited, not measured here", "key": {"mice": {"test_system": "mice", "settings": "reference agents, scores below 40 of 60 denote behavioral depression"}, "GABA uptake system": {"test_system": "GABA uptake system", "settings": "at concentrations of 5×10^4 M"}, "[1]": {"target": "GABA:2-oxo-glutarate aminotransferase (Homo sapiens, UniProt P80404)", "sequence (P80404 29-500)": "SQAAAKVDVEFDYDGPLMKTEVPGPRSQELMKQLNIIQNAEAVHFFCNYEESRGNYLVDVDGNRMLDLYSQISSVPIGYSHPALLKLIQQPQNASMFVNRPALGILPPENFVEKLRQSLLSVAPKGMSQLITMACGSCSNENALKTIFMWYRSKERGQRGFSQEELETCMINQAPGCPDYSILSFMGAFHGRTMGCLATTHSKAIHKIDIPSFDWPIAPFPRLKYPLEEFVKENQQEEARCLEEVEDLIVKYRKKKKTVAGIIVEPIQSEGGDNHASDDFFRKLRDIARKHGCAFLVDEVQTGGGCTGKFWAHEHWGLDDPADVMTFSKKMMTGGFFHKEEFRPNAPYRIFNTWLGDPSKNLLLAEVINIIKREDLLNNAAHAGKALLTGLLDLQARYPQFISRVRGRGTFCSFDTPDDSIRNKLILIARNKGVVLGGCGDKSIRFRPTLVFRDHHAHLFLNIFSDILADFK", "settings": "at concentrations of 10^−3 M"}, "[2]": {"test_system": "L-glutamate 1-carboxylase", "settings": "at concentrations of 10^−3 M"}, "[3]": {"settings": "oral"}, "[4]": {"settings": "in vivo"}}, "note": "Counter-ions that a name gives are not always drawn.", "data": [{"compound": "NC(=O)C[S+]([O-])C(c1ccccc1)c1ccccc1", "note": "(stereo not shown) [Modafinil, 2-[(Diphenylmethyl)sulfinyl]-N-acetamide]", "values": [{"measurement": "solubility in acetone", "setting": "acetone", "value": "sparingly or slightly soluble"}, {"measurement": "solubility in cyclohexane", "setting": "cyclohexane", "value": "insoluble"}, {"measurement": "solubility in methanol", "value": "sparingly or slightly soluble"}, {"measurement": "solubility in water", "value": "insoluble"}]}, {"compound": "CP(=O)(O)CCCN", "note": "[SKF 97541, 3-aminopropyl(methyl)phosphinic acid]", "values": [{"measurement": "solubility in dilute aqueous base", "setting": "dilute aqueous base", "value": "readily soluble"}, {"measurement": "solubility in water", "value": "readily soluble"}]}, {"compound": "CN1C(=O)CN=C(c2ccccc2)c2cc(Cl)ccc21", "note": "[diazepam, 7-chloro-1,3-dihydro-1-methyl-5-phenyl-2H-1,4-benzodiazepin-2-one]", "values": [{"measurement": "ED100", "setting": "mice", "value": 50, "unit": "mg/kg"}]}, {"compound": "Oc1noc2c1CCNC2", "note": "[gaboxadol, 4,5,6,7-tetrahydroisoxazolo[5,4-c]pyridin-3-ol]", "values": [{"measurement": "interaction with the GABA uptake system", "setting": "GABA uptake system", "value": "did not interact"}, {"measurement": "interaction with GABA:2-oxo-glutarate aminotransferase", "setting": "[1]", "value": "did not interact"}, {"measurement": "interaction with L-glutamate 1-carboxylase", "setting": "[2]", "value": "did not interact"}]}, {"compound": "CCC1(c2ccccc2)CCC(=O)NC1=O", "note": "(stereo not shown) [glutethimide]", "values": [{"measurement": "ED100", "setting": "mice", "value": 300, "unit": "mg/kg"}]}, {"compound": "O=C(CCCN1CCC(O)(c2ccc(Cl)cc2)CC1)c1ccc(F)cc1", "note": "[haloperidol]", "values": [{"measurement": "ED100", "setting": "mice", "value": 10, "unit": "mg/kg"}]}, {"compound": "CCCC(C)(COC(N)=O)COC(N)=O", "note": "[meprobamate]", "values": [{"measurement": "ED100", "setting": "mice", "value": 300, "unit": "mg/kg"}]}, {"compound": "CCCC(C)C1(CC)C(=O)NC(=O)NC1=O", "note": "(stereo not shown) [pentobarbital]", "values": [{"measurement": "ED100", "setting": "mice", "value": 100, "unit": "mg/kg"}]}, {"compound": "COC(=O)[C@H]1[C@H]2C[C@@H]3c4[nH]c5cc(OC)ccc5c4CCN3C[C@H]2C[C@@H](OC(=O)c2cc(OC)c(OC)c(OC)c2)[C@@H]1OC", "note": "[reserpine]", "values": [{"measurement": "ED100", "setting": "mice", "value": 50, "unit": "mg/kg"}]}, {"compound": "Cc1ccc(-c2nc3ccc(C)cn3c2CC(=O)N(C)C)cc1", "note": "[zolpidem tartrate]", "values": [{"measurement": "solubility in methanol", "value": "sparingly soluble"}, {"measurement": "solubility in methylene chloride", "setting": "methylene chloride", "value": "practically insoluble"}, {"measurement": "solubility in water", "value": "slightly soluble"}]}, {"compound": "Cc1ccc(-c2nc3ccc(C)cn3c2CC(=O)N(C)C)cc1", "note": "[zolpidem, N,N,6-trimethyl-2-(4-methylphenyl)-imidazo[1,2-s]pyridine-3-acetamide]", "values": [{"measurement": "elimination half-life (mean)", "setting": "[3]", "value": 2.4, "unit": "h"}, {"measurement": "duration of action", "setting": "[3]; hypnotic action", "value": "up to 6 hours"}]}, {"compound": "zopiclone", "values": [{"measurement": "absorption from the stomach", "setting": "[4]", "value": "well absorbed"}, {"measurement": "binding to plasma proteins", "setting": "plasma proteins", "value": "not highly bound"}]}]}
